For this series, the system named is CCRIS mutagenicity, Ames/micronucleus/aberration tests. The experiment in a line: CCRIS mutagenicity studies.
[1] abbreviates: Test System: AMES SALMONELLA TYPHIMURIUM, Strain/Indicator: TA104, Metabolic Activation: NONE, Method: PREINCUBATION
The mark [2] stands for this setting: Test System: AMES SALMONELLA TYPHIMURIUM, Strain/Indicator: TA100, Metabolic Activation: RAT, LIVER, S-9, AROCLOR 1254, Method: STANDARD PLATE.
[3] abbreviates: Test System: AMES SALMONELLA TYPHIMURIUM, Strain/Indicator: TA98, Metabolic Activation: NONE, Method: STANDARD PLATE.
[4] abbreviates: Test System: AMES SALMONELLA TYPHIMURIUM, Strain/Indicator: TA98, Metabolic Activation: RAT, LIVER, S-9, AROCLOR 1254, Method: STANDARD PLATE.
The mark [5] stands for this setting: Test System: AMES SALMONELLA TYPHIMURIUM, Strain/Indicator: TA100, Metabolic Activation: NONE, Method: STANDARD PLATE.

Calls of active or inactive are those of the source. No rule for the calls is given here.

Regarding `Cc1ccc(C(=O)Cl)cc1`, the mutagenic call (Test System: AMES SALMONELLA TYPHIMURIUM, Strain/Indicator: TA98, Metabolic Activation: NONE, Method: PREINCUBATION) was “inactive; negative”; the mutagenic call (Test System: AMES SALMONELLA TYPHIMURIUM, Strain/Indicator: TA98, Metabolic Activation: RAT LIVER S-9, PCB, Method: PREINCUBATION) was “inactive; negative”; the mutagenic call (Test System: AMES SALMONELLA TYPHIMURIUM, Strain/Indicator: TA100, Metabolic Activation: NONE, Method: PREINCUBATION) was “active; positive”; the mutagenic call (Test System: AMES SALMONELLA TYPHIMURIUM, Strain/Indicator: TA100, Metabolic Activation: RAT LIVER S-9, PCB, Method: PREINCUBATION) is “active; positive”; the mutagenic call under setting [1] was “active; positive”; the mutagenic call (Test System: AMES SALMONELLA TYPHIMURIUM, Strain/Indicator: TA104, Metabolic Activation: RAT LIVER S-9, PCB, Method: PREINCUBATION) is “active; positive”. The mutagenic call by setting is: (Test System: E.COLI, Strain/Indicator: WP2 UVRA, Metabolic Activation: NONE, Method: PREINCUBATION) “active; positive”; (Test System: E.COLI, Strain/Indicator: WP2 UVRA, Metabolic Activation: RAT LIVER S-9, PCB, Method: PREINCUBATION) “active; positive”.
As for `NOS(=O)(=O)O`, the mutagenic call (Test System: AMES SALMONELLA TYPHIMURIUM, Strain/Indicator: G46, Metabolic Activation: RAT, LIVER, S-9, AROCLOR 1254, Method: STANDARD PLATE) was “active; positive” and the mutagenic call under setting [2] was “inactive; negative”.
On to `COCCN(N=O)C(N)=O`, for which the mutagenic call is, setting by setting: (Test System: E. COLI B, Strain/Indicator: H/R30R, Metabolic Activation: NONE) “active; positive”; (Test System: E. COLI B, Strain/Indicator: HS30R, Metabolic Activation: NONE) “active; positive”.
Consider `CCCCCCCCCc1ccc(O)cc1`, for which the mutagenic call reads like this: (Test System: AMES SALMONELLA TYPHIMURIUM, Strain/Indicator: TA97, Metabolic Activation: NONE, Method: PREINCUBATION) “inactive; negative”; (Test System: AMES SALMONELLA TYPHIMURIUM, Strain/Indicator: TA97, Metabolic Activation: S-9, Method: PREINCUBATION) “inactive; negative”; (Test System: AMES SALMONELLA TYPHIMURIUM, Strain/Indicator: TA98, Metabolic Activation: RAT, LIVER, S-9, KC 500, Method: PREINCUBATION) “inactive; negative”; (Test System: AMES SALMONELLA TYPHIMURIUM, Strain/Indicator: TA98, Metabolic Activation: RAT, LIVER, S-9, SODIUM PHENOBARBITAL AND 5,6-BENZOFLAVONE, Method: PREINCUBATION) “inactive; negative”; (Test System: AMES SALMONELLA TYPHIMURIUM, Strain/Indicator: TA98, Metabolic Activation: S-9, Method: PREINCUBATION) “inactive; negative”; (Test System: AMES SALMONELLA TYPHIMURIUM, Strain/Indicator: TA100, Metabolic Activation: RAT, LIVER, S-9, KC 500, Method: PREINCUBATION) “inactive; negative”. For the same molecule, the mutagenic call is, setting by setting: (Test System: AMES SALMONELLA TYPHIMURIUM, Strain/Indicator: TA100, Metabolic Activation: RAT, LIVER, S-9, SODIUM PHENOBARBITAL AND 5,6-BENZOFLAVONE, Method: PREINCUBATION) “inactive; negative”; (Test System: AMES SALMONELLA TYPHIMURIUM, Strain/Indicator: TA100, Metabolic Activation: S-9, Method: PREINCUBATION) “inactive; negative”; (Test System: AMES SALMONELLA TYPHIMURIUM, Strain/Indicator: TA102, Metabolic Activation: RAT, LIVER, S-9, SODIUM PHENOBARBITAL AND 5,6-BENZOFLAVONE, Method: PREINCUBATION) “inactive; negative”; (Test System: AMES SALMONELLA TYPHIMURIUM, Strain/Indicator: TA102, Metabolic Activation: S-9, Method: PREINCUBATION) “inactive; negative”; under setting [1], “inactive; negative”; (Test System: AMES SALMONELLA TYPHIMURIUM, Strain/Indicator: TA104, Metabolic Activation: RAT, LIVER, S-9, SODIUM PHENOBARBITAL AND 5,6-BENZOFLAVONE, Method: PREINCUBATION) “inactive; negative”. Further, the mutagenic call (Test System: AMES SALMONELLA TYPHIMURIUM, Strain/Indicator: TA104, Metabolic Activation: S-9, Method: PREINCUBATION) is “inactive; negative”; the mutagenic call (Test System: AMES SALMONELLA TYPHIMURIUM, Strain/Indicator: TA1535, Metabolic Activation: NONE, Method: PREINCUBATION) is “inactive; negative”; the mutagenic call (Test System: AMES SALMONELLA TYPHIMURIUM, Strain/Indicator: TA1535, Metabolic Activation: RAT, LIVER, S-9, KC 500, Method: PREINCUBATION) is “inactive; negative”; the mutagenic call (Test System: AMES SALMONELLA TYPHIMURIUM, Strain/Indicator: TA1535, Metabolic Activation: RAT, LIVER, S-9, SODIUM PHENOBARBITAL AND 5,6-BENZOFLAVONE, Method: PREINCUBATION) is “inactive; negative”; the mutagenic call (Test System: AMES SALMONELLA TYPHIMURIUM, Strain/Indicator: TA1537, Metabolic Activation: NONE, Method: PREINCUBATION) was “inactive; negative”; the mutagenic call (Test System: AMES SALMONELLA TYPHIMURIUM, Strain/Indicator: TA1537, Metabolic Activation: RAT, LIVER, S-9, KC 500, Method: PREINCUBATION) is “inactive; negative”. In addition, the mutagenic call is, setting by setting: (Test System: AMES SALMONELLA TYPHIMURIUM, Strain/Indicator: TA1537, Metabolic Activation: RAT, LIVER, S-9, SODIUM PHENOBARBITAL AND 5,6-BENZOFLAVONE, Method: PREINCUBATION) “inactive; negative”; (Test System: AMES SALMONELLA TYPHIMURIUM, Strain/Indicator: TA1538, Metabolic Activation: NONE, Method: PREINCUBATION) “inactive; negative”; (Test System: AMES SALMONELLA TYPHIMURIUM, Strain/Indicator: TA1538, Metabolic Activation: RAT, LIVER, S-9, KC 500, Method: PREINCUBATION) “inactive; negative”; (Test System: E. COLI, Strain/Indicator: WP2UVRA/PKM101, Metabolic Activation: NONE, Method: PREINCUBATION) “inactive; negative”; (Test System: E. COLI, Strain/Indicator: WP2UVRA/PKM101, Metabolic Activation: RAT, LIVER, S-9, SODIUM PHENOBARBITAL AND 5,6-BENZOFLAVONE, Method: PREINCUBATION) “inactive; negative”; (Test System: E. COLI, Strain/Indicator: WP2 UVRA, Metabolic Activation: NONE, Method: PREINCUBATION) “inactive; negative”. Moreover, the mutagenic call by setting is: (Test System: E. COLI, Strain/Indicator: WP2UVRA, Metabolic Activation: NONE, Method: PREINCUBATION) “inactive; negative”; (Test System: E. COLI, Strain/Indicator: WP2 UVRA, Metabolic Activation: RAT, LIVER, S-9, KC 500, Method: PREINCUBATION) “inactive; negative”; (Test System: E. COLI, Strain/Indicator: WP2UVRA, Metabolic Activation: RAT, LIVER, S-9, SODIUM PHENOBARBITAL AND 5,6-BENZOFLAVONE, Method: PREINCUBATION) “inactive; negative”.
Take `O=C(O)/C=C(/CC(=O)O)C(=O)O`: the mutagenic call was “inactive; negative” under setting [3]; “inactive; negative” under setting [4]; “inactive; negative” under setting [5]; “inactive; negative” under setting [2]; “inactive; negative” (Test System: AMES SALMONELLA TYPHIMURIUM, Strain/Indicator: TA1535, Metabolic Activation: NONE, Method: STANDARD PLATE); “inactive; negative” (Test System: AMES SALMONELLA TYPHIMURIUM, Strain/Indicator: TA1535, Metabolic Activation: RAT, LIVER, S-9, AROCLOR 1254, Method: STANDARD PLATE). Also, the mutagenic call (Test System: AMES SALMONELLA TYPHIMURIUM, Strain/Indicator: TA1537, Metabolic Activation: NONE, Method: STANDARD PLATE) was “inactive; negative” and the mutagenic call (Test System: AMES SALMONELLA TYPHIMURIUM, Strain/Indicator: TA1537, Metabolic Activation: RAT, LIVER, S-9, AROCLOR 1254, Method: STANDARD PLATE) was “inactive; negative”.
In the case of `CCC(=O)N(O)c1ccc(Cl)c(Cl)c1`, the mutagenic call is, setting by setting: (Test System: AMES SALMONELLA TYPHIMURIUM, Strain/Indicator: TA97, Metabolic Activation: NONE, Method: STANDARD PLATE) “inactive; negative”; (Test System: AMES SALMONELLA TYPHIMURIUM, Strain/Indicator: TA97, Metabolic Activation: RAT, LIVER, S-9, AROCLOR 1254, Method: STANDARD PLATE) “inactive; negative”; under setting [3], “inactive; negative”; under setting [4], “inactive; negative”; under setting [5], “inactive; negative”; under setting [2], “inactive; negative”. The mutagenic call is “inactive; negative” (Test System: AMES SALMONELLA TYPHIMURIUM, Strain/Indicator: TA104, Metabolic Activation: NONE, Method: STANDARD PLATE) and “inactive; negative” (Test System: AMES SALMONELLA TYPHIMURIUM, Strain/Indicator: TA104, Metabolic Activation: RAT, LIVER, S-9, AROCLOR 1254, Method: STANDARD PLATE).
